In one data set the target is T1, TR-α (Homo sapiens, UniProt P10827).
T1 sequence (P10827 1-410 isoform P10827-2): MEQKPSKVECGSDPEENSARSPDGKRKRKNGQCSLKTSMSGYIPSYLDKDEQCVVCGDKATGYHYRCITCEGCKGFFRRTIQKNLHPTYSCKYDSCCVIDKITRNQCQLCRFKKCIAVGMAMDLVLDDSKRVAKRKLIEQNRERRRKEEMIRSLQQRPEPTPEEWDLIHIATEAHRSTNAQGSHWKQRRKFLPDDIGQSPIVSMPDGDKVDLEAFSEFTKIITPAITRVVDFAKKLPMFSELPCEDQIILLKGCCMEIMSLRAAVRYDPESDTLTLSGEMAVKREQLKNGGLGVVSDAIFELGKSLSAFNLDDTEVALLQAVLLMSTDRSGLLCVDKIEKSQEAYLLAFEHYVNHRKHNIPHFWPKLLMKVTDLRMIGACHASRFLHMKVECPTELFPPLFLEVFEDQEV
As to the kind of experiment: In vitro TR-α activity (in-house protocol). Type of data set: cell-based. As for the experimental part:
(§1) Invitro TR-α & TR-β activities were determined as per in-house protocols and the results of representative compounds are provided in tables 1 & 2 below as a proof of the efficacies of the novel class of compounds disclosed above.

In the next data set the target is T2, TR-β (Homo sapiens, UniProt P10828).
T2 sequence (P10828 1-461): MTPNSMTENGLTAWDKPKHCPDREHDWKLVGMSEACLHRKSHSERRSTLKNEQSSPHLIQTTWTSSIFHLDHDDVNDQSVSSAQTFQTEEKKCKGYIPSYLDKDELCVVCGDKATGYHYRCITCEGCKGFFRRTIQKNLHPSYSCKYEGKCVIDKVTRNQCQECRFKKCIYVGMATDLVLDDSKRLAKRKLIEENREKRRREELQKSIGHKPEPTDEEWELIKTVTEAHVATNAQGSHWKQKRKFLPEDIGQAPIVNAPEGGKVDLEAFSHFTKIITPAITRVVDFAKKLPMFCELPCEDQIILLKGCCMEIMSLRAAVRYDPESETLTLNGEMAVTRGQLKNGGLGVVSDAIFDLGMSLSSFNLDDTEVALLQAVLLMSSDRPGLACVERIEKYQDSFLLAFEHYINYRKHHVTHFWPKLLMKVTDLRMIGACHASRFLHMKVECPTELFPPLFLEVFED
As to the kind of experiment: In vitro TR-β activity (in-house protocol). Particulars: for fold induction at 0.001 µM: Conc. 1 nM; for fold induction at 0.001 µM / fold induction at 0.01 µM / fold induction at 0.1 µM / fold induction at 1 µM: read-out: TR-β Fold Induction w.r.t T3(100 nm); for fold induction at 0.01 µM: Conc. 10 nM; for fold induction at 0.1 µM: Conc. 100 nM; for fold induction at 1 µM: Conc. 1000 nM. Format: cell-based. The method, then:
as §1

`O=C(O)CN(C(=O)Oc1ccc(O)cc1)c1cc(Cl)c(Oc2ccc(O)c(-c3ccccc3)c2)c(Cl)c1` [Example 49, [[3,5-Dichloro-4-(6-hydroxy-biphenyl-3-yloxy)-phenyl]-(4-hydroxy-phenoxycarbonyl)-amino]-acetic acid]: the EC50 at TR-α came to 38 nM; on TR-β it was 10.3 nM.
`O=C(O)CN(C(=O)Oc1ccc(O)cc1)c1cc(Cl)c(Oc2ccc(O)c(Cc3ccccc3)c2)c(Cl)c1` [Example 50, [[4-(3-Benzyl-4-hydroxy-phenoxy)-3,5-dichloro-phenyl]-(4-hydroxy-phenoxycarbonyl)-amino]-acetic acid]: the EC50 on TR-α is 23.3 nM; on TR-β, 6.2 nM.
On to `O=C(O)CN(C(=O)Oc1ccc(O)cc1)c1cc(Cl)c(Oc2ccc(O)c(S(=O)(=O)NC3CCC3)c2)c(Cl)c1` [Example 51, [[3,5-Dichloro-4-(3-cyclobutylsulfamoyl-4-hydroxy-phenoxy)-phenyl]-(4-hydroxy-phenoxycarbonyl)-amino]-acetic acid], for which the “TR-α Fold Induction w.r.t T3(100 nm)” value at TR-α (Conc. 1 nM) was found to be 08.05; at TR-α (Conc. 10 nM) it was 14.43; on TR-α (Conc. 100 nM) it was 32.52; at TR-α (Conc. 1000 nM), 83.34. The fold induction at 0.001 µM at TR-β worked out at 8.68. Besides, the fold induction at 0.01 µM on TR-β was found to be 17. For the same compound, the fold induction at 0.1 µM at TR-β amounted to 54.6. Further, on TR-β, the fold induction at 1 µM worked out at 102.
For the compound `O=C(O)CN(C(=O)Oc1ccc(O)cc1)c1cc(Br)c(Oc2ccc(O)c(S(=O)(=O)NC3CC4CCC3C4)c2)c(Br)c1` (stereo not shown) [Example 53, [{4-[3-(Bicyclo[2.2.1]hept-2-ylsulfamoyl)-4-hydroxy-phenoxy]-3,5-dibromo-phenyl}-(4-hydroxy-phenoxycarbonyl)-amino]-acetic acid], on TR-α (Conc. 1 nM), the “TR-α Fold Induction w.r.t T3(100 nm)” value turned out to be 11.19. On TR-α (Conc. 10 nM), the “TR-α Fold Induction w.r.t T3(100 nm)” value came out at 12.00. Moreover, at TR-α (Conc. 100 nM), the “TR-α Fold Induction w.r.t T3(100 nm)” value came to 17.15. Besides, the “TR-α Fold Induction w.r.t T3(100 nm)” value at TR-α (Conc. 1000 nM) amounted to 50.30. In addition, on TR-β, the fold induction at 0.001 µM stood at 11, the fold induction at 0.01 µM came out at 12.9, the fold induction at 0.1 µM turned out to be 27 and the fold induction at 1 µM was 91.7.
Take `O=C(O)CN(C(=O)Oc1ccc(O)cc1)c1cc(Cl)c(Oc2ccc(O)c(C(=O)c3ccc(F)cc3)c2)c(Cl)c1` [Example 55, [{3,5-Dichloro-4-[3-(4-fluoro-benzoyl)-4-hydroxy-phenoxy]-phenyl}-(4-hydroxy-phenoxycarbonyl)-amino]-acetic acid]: the results for the EC50 on TR-α and at TR-β were 107 nM and 64.3 nM, respectively.
As to `O=C(O)CN(C(=O)Oc1ccc(O)cc1)c1cc(Cl)c(Oc2ccc(O)c(C(O)c3ccc(Cl)cc3)c2)c(Cl)c1` (stereo not shown) [Example 56, [(3,5-Dichloro-4-{3-[(4-chloro-phenyl)-hydroxy-methyl]-4-hydroxy-phenoxy}-phenyl)-(4-hydroxy-phenoxycarbonyl)-amino]-acetic acid], the EC50 was 13.4 nM at TR-α and 20.4 nM at TR-β.
Consider `O=C(O)CN(C(=O)Oc1ccc(O)cc1)c1cc(Cl)c(Oc2ccc(O)c(S(=O)(=O)N3CCCCCC3)c2)c(Cl)c1` [Example 57, [{4-[3-(Azepane-1-sulfonyl)-4-hydroxy-phenoxy]-3,5-dichloro-phenyl}-(4-hydroxy-phenoxycarbonyl)-amino]-acetic acid], for which, at TR-α (Conc. 1 nM), the “TR-α Fold Induction w.r.t T3(100 nm)” value is 21.61. Further, the “TR-α Fold Induction w.r.t T3(100 nm)” value at TR-α (Conc. 10 nM) came to 24.62. The “TR-α Fold Induction w.r.t T3(100 nm)” value at TR-α (Conc. 100 nM) is listed as 35.93. The “TR-α Fold Induction w.r.t T3(100 nm)” value on TR-α (Conc. 1000 nM) was determined as 60.40. At TR-β, the fold induction at 0.001 µM stood at 12.6, the fold induction at 0.01 µM amounted to 14.8, the fold induction at 0.1 µM stood at 23.6 and the fold induction at 1 µM was 62.5.
Take `O=C(O)CN(C(=O)Oc1ccc(O)cc1)c1cc(Cl)c(Oc2ccc(O)c(S(=O)(=O)N3CCOCC3)c2)c(Cl)c1` [Example 61, [{3,5-Dichloro-4-[4-hydroxy-3-(morpholine-4-sulfonyl)-phenoxy]-phenyl}-(4-hydroxy-phenoxycarbonyl)-amino]-acetic acid]: the “TR-α Fold Induction w.r.t T3(100 nm)” value on TR-α (Conc. 1 nM) was 11.55. The “TR-α Fold Induction w.r.t T3(100 nm)” value on TR-α (Conc. 10 nM) was 12.50. Further, on TR-α (Conc. 100 nM), the “TR-α Fold Induction w.r.t T3(100 nm)” value stood at 12.30. Moreover, at TR-α (Conc. 1000 nM), the “TR-α Fold Induction w.r.t T3(100 nm)” value is reported as 28.11. Further, at TR-β, the fold induction at 0.001 µM was determined as 10.2, the fold induction at 0.01 µM is 12.2, the fold induction at 0.1 µM is 28.9 and the fold induction at 1 µM was found to be 85.2.
With `O=C(O)CN(C(=O)Oc1ccc(O)cc1)c1cc(Cl)c(Oc2ccc(O)c(S(=O)(=O)N3CCCC3)c2)c(Cl)c1` [Example 63, [{3,5-Dichloro-4-[4-hydroxy-3-(pyrrolidine-1-sulfonyl)-phenoxy]-phenyl}-(4-hydroxy-phenoxycarbonyl)-amino]-acetic acid], the EC50 at TR-α turned out to be 337 nM; on TR-β, 254 nM.
Take `Cc1cccc(C(=O)c2cc(Oc3c(Cl)cc(N(CC(=O)O)C(=O)Oc4ccc(O)cc4)cc3Cl)ccc2O)c1` [Example 66, [{3,5-Dichloro-4-[4-hydroxy-3-(3-methyl-benzoyl)-phenoxy]-phenyl}-(4-hydroxy-phenoxycarbonyl)-amino]-acetic acid]: the “TR-α Fold Induction w.r.t T3(100 nm)” value on TR-α (Conc. 1 nM) turned out to be 20.56. Besides, on TR-α (Conc. 10 nM), the “TR-α Fold Induction w.r.t T3(100 nm)” value was 15.36. Further, at TR-α (Conc. 100 nM), the “TR-α Fold Induction w.r.t T3(100 nm)” value was determined as 18.11. For the same compound, at TR-α (Conc. 1000 nM), the “TR-α Fold Induction w.r.t T3(100 nm)” value is given as 25.75. Besides, at TR-β, the fold induction at 0.001 µM stood at 36.7, the fold induction at 0.01 µM is 25.9, the fold induction at 0.1 µM worked out at 40.7 and the fold induction at 1 µM was found to be 55.2.
As for `O=C(O)CN(C(=O)Oc1ccc(O)cc1)c1cc(Br)c(Oc2ccc(O)c(C(=O)c3ccc(Cl)cc3)c2)c(Br)c1` [Example 67, [{3,5-Dibromo-4-[3-(4-chloro-benzoyl)-4-hydroxy-phenoxy]-phenyl}-(4-hydroxy-phenoxycarbonyl)-amino]-acetic acid], the EC50 on TR-α was determined as 49 nM; on TR-β it was 12.8 nM.

As usually defined, the EC50 is the concentration giving half of the maximal effect. Low readings indicate a more potent agent, high ones a less potent agent.

Values taken from US8420851B2, “Selective TR-β 1 agonist” (Cadila Healthcare Limited, priority 2006, dated 2013).
